{"source": "patent US10774051B2", "about": "“6-membered heterocyclic derivatives and pharmaceutical composition comprising the same” (Shionogi & Co., Ltd., priority 2015, dated 2020)", "note": "pIC50: −log10 of the molar value."}
{"molecular_target": "human P2X7 receptor (Homo sapiens, UniProt Q99572, R270H/Y155H)", "test": "Evaluation of human P2X7 receptor inhibitory activity (Yo-Pro uptake, BzATP stimulation, FLIPR TETRA)", "assay_type": "cell-based", "conditions": "1321N1 cells stably expressing human P2X7 receptor; BzATP stimulation, Yo-Pro uptake; read-out: IC50 (antagonistic activity for the human P2X7 receptor)", "outline": "(§1)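 Yo-Pro dye uptake triggered by BzATP was monitored by FLIPR in human P2X7-transfected 1321N1 cells (SNP variant) in HEPES-buffered HBSS, pH 7.4-7.5. Compound was dispensed 8 min post-stimulation, then signal read for 20 min; IC50 derived logistically from inhibition of the fluorescence range.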"}
{"molecule": "Cc1cc(Nc2nc(=O)c(Cl)cn2Cc2cc(F)cc(F)c2)c2cc[nH]c2c1", "note": "[Compound I-0706]", "pIC50": 7.82}
{"molecule": "CCc1cc2c(cc1Nc1nc(=O)c(OC)cn1Cc1ccc(F)c(Cl)c1)CCC2", "note": "[Compound I-0242]", "pIC50": 7.92}
{"molecule": "COc1cn(Cc2cc(F)c(F)c(F)c2)c(Nc2cccc3sccc23)nc1=O", "note": "[Compound I-0626]", "pIC50": 8.40}
{"molecular_target": "human P2X7 receptor (Homo sapiens, UniProt Q99572, R270H/Y155H)", "test": "Evaluation of human P2X7 receptor inhibitory activity (Yo-Pro uptake, BzATP stimulation, FLIPR TETRA)", "assay_type": "cell-based", "conditions": "1321N1 cells stably expressing human P2X7 receptor; BzATP stimulation, Yo-Pro uptake; read-out: IC50 (antagonistic activity for the human P2X7 receptor), class symbol", "outline": "as §1"}
{"molecule": "COc1cn(Cc2ccccc2F)c(Nc2cc(C)c(Cl)cc2C)nc1=O", "note": "[Compound I-0167]", "pIC50": "7.00 to 8.00"}
{"molecule": "COc1cn(Cc2ccc(F)c(F)c2)c(Nc2cccc3sccc23)nc1=O", "note": "[Compound I-0485]", "pIC50": "> 8.00"}
{"molecule": "COc1cn(Cc2cc(F)cc(F)c2)c(Nc2cccc3sccc23)nc1=O", "note": "[Compound I-0441]", "pIC50": "> 8.00"}
{"molecule": "COc1cn(Cc2cc(F)c(F)c(F)c2)c(Nc2ccc(C)cc2C)nc1=O", "note": "[Compound I-0570]", "pIC50": "> 8.00"}
{"molecule": "CCc1ccccc1Nc1nc(=O)c(OC)cn1Cc1ccccc1", "note": "[Compound I-0084]", "pIC50": "7.00 to 8.00"}
{"molecule": "COc1cn(Cc2cccc(Cl)c2)c(Nc2cccc(N(C)C)c2C)nc1=O", "note": "[Compound I-0432]", "pIC50": "7.00 to 8.00"}
{"molecule": "COc1cn(Cc2ccccc2)c(Nc2cc(C)c(OC(F)F)cc2C)nc1=O", "note": "[Compound I-0237]", "pIC50": "> 8.00"}
{"molecule": "CCOc1cc(C)c(Nc2nc(=O)c(OC)cn2Cc2cc(F)cc(F)c2)cc1C", "note": "[Compound I-0383]", "pIC50": "> 8.00"}
{"molecule": "Cc1c(Cl)cccc1Nc1nc(=O)c(C(=O)NCCS(C)(=O)=O)cn1Cc1ccccc1", "note": "[Compound I-0077]", "pIC50": "7.00 to 8.00"}
{"molecule": "COc1cn(Cc2ccc(F)c(Cl)c2)c(Nc2cccc(SC)c2C)nc1=O", "note": "[Compound I-0430]", "pIC50": "> 8.00"}
{"molecule": "COc1cc(C)cc(Nc2nc(=O)c(OC)cn2Cc2cccc(Cl)c2)c1C", "note": "[Compound I-0428]", "pIC50": "> 8.00"}
{"molecule": "COc1cc(F)cc(Cn2cc(OC)c(=O)nc2Nc2cccc(Cl)c2C)c1", "note": "[Compound I-0427]", "pIC50": "6.30 to 7.00"}
{"molecule": "COc1cn(Cc2cc(F)cc(F)c2)c(Nc2cccc(OC(F)F)c2C)nc1=O", "note": "[Compound I-0504]", "pIC50": "> 8.00"}
{"molecule": "COc1cn(Cc2cc(F)c(F)c(F)c2)c(Nc2cc(C)ccc2C)nc1=O", "note": "[Compound I-0571]", "pIC50": "> 8.00"}
{"molecule": "COc1cn(Cc2cccc(Cl)c2)c(Nc2cccc(C)c2Cl)nc1=O", "note": "[Compound I-0481]", "pIC50": "7.00 to 8.00"}
{"molecule": "CCOc1cn(Cc2ccccc2)c(Nc2cccc(Cl)c2C)nc1=O", "note": "[Compound I-0137]", "pIC50": "7.00 to 8.00"}
{"molecule": "COc1cn(Cc2ccc(F)c(Cl)c2)c(Nc2ccc(OC(F)(F)F)cc2C)nc1=O", "note": "[Compound I-0241]", "pIC50": "7.00 to 8.00"}
{"molecule": "COc1cn(Cc2ccc(F)c(Cl)c2)c(Nc2cc(N3CCCS3(=O)=O)ccc2C)nc1=O", "note": "[Compound I-0232]", "pIC50": "> 8.00"}
{"molecule": "COc1cn(Cc2ccc(F)c(Cl)c2)c(Nc2cc(OC(C)C)ccc2C)nc1=O", "note": "[Compound I-0321]", "pIC50": "7.00 to 8.00"}
{"molecule": "COc1cn(Cc2cc(F)cc(Cl)c2)c(Nc2cccc(C)c2C)nc1=O", "note": "[Compound I-0403]", "pIC50": "7.00 to 8.00"}
{"molecule": "COc1cn(Cc2ccccc2)c(Nc2cc(C)c(C)cc2C)nc1=O", "note": "[Compound I-0357]", "pIC50": "6.00 to 6.30"}
{"molecule": "CCc1cc(OC)c(OC)cc1Nc1nc(=O)c(F)cn1Cc1ccc(F)cc1", "note": "[Compound I-0267]", "pIC50": "> 8.00"}
{"molecule": "COc1cn(Cc2cc(F)cc(Cl)c2)c(Nc2cc(CO)c(C)cc2C)nc1=O", "note": "[Compound I-0578]", "pIC50": "> 8.00"}
{"molecule": "COc1cn(Cc2ccccc2)c(Nc2cc(C(N)=O)ccc2Cl)nc1=O", "note": "[Compound I-0181]", "pIC50": "6.00 to 6.30"}
{"molecular_target": "human P2X7 receptor (Homo sapiens, UniProt Q99572, R270H/Y155H)", "test": "Evaluation of human P2X7 receptor inhibitory activity (Yo-Pro uptake, BzATP stimulation, FLIPR TETRA)", "assay_type": "cell-based", "conditions": "antagonistic activity for the human P2X7 receptor; read-out: IC50", "outline": "as §1"}
{"molecule": "Cc1cc(OC(F)F)ccc1Nc1nc(=O)c(F)cn1Cc1ccc(F)c(F)c1", "note": "[Compound I-1065]", "pIC50": "7.00 to 8.00"}
{"molecule": "CCOc1cn(Cc2ccc(F)c(Cl)c2)c(Nc2cc(C)c(OC)cc2C)nc1=O", "note": "[Compound I-0714]", "pIC50": "> 8.00"}
{"molecule": "COc1cn(Cc2cc(F)cc(F)c2)c(Nc2cccc3[nH]c(C)cc23)nc1=O", "note": "[Compound I-0598]", "pIC50": "7.00 to 8.00"}
{"molecule": "Cn1ccc2c(Nc3nc(=O)c(F)cn3Cc3cc(F)cc(F)c3)cccc21", "note": "[Compound I-1021]", "pIC50": "> 8.00"}
{"molecule": "Cc1ccc(Cl)c(Nc2nc(=O)c(F)cn2Cc2cc(F)c(F)c(F)c2)c1", "note": "[Compound I-1195]", "pIC50": "> 8.00"}
{"molecule": "COc1cc(C)c(Nc2nc(=O)c(F)cn2Cc2cc(F)c(F)c(F)c2)cc1Cl", "note": "[Compound I-1175]", "pIC50": "> 8.00"}
{"molecule": "Cc1ccc(OCC2CC2)cc1Nc1nc(=O)c(F)cn1Cc1cc(F)cc(F)c1", "note": "[Compound I-0997]", "pIC50": "7.00 to 8.00"}
{"molecule": "COc1cn(Cc2ccc(F)c(F)c2)c(Nc2cc(-n3cccc3)ccc2C)nc1=O", "note": "[Compound I-0653]", "pIC50": "> 8.00"}
{"molecule": "COc1cc(C)c(Nc2nc(=O)c(OC)cn2Cc2ccc(F)c(F)c2)cc1Cl", "note": "[Compound I-0616]", "pIC50": "> 8.00"}
{"molecule": "CCc1cc(Br)ccc1Nc1nc(=O)c(OC)cn1Cc1cc(F)cc(Cl)c1", "note": "[Compound I-0656]", "pIC50": "7.00 to 8.00"}
{"molecule": "Cc1ccc(OC(F)F)cc1Nc1nc(=O)c(F)cn1Cc1cc(F)cc(F)c1", "note": "[Compound I-0994]", "pIC50": "7.00 to 8.00"}
{"molecule": "Cc1cccc(Nc2nc(=O)c(F)cn2Cc2cc(F)c(F)c(F)c2)c1C", "note": "[Compound I-1189]", "pIC50": "> 8.00"}
{"molecule": "COc1cn(Cc2cc(F)cc(F)c2)c(Nc2cc(Cl)ccc2C)nc1=O", "note": "[Compound I-0593]", "pIC50": "7.00 to 8.00"}
{"molecule": "COc1cc(C)c(Nc2nc(=O)c(C)nn2Cc2cc(F)c(F)c(F)c2)cc1OC", "note": "[Compound I-1266]", "pIC50": "7.00 to 8.00"}
{"molecule": "COCc1cn(Cc2cc(F)c(F)c(F)c2)c(Nc2ccc3[nH]ccc3c2C)nc1=O", "note": "[Compound I-1163]", "pIC50": "> 8.00"}
{"molecule": "Cc1c(F)cccc1Nc1nc(=O)c(F)cn1Cc1cc(F)c(F)c(F)c1", "note": "[Compound I-1181]", "pIC50": "> 8.00"}
{"molecule": "COc1ccc(C)c(Nc2nc(=O)c(C(=O)O)nn2Cc2cc(F)c(F)c(F)c2)c1", "note": "[Compound I-1249]", "pIC50": "7.00 to 8.00"}
{"molecule": "CCc1cc(Cl)ccc1Nc1nc(=O)c(OC)cn1Cc1cc(F)cc(Cl)c1", "note": "[Compound I-0611]", "pIC50": "7.00 to 8.00"}
{"molecule": "COc1cn(Cc2ccc(F)c(Cl)c2)c(Nc2cc3c(cc2C)OC(F)(F)C(F)(F)O3)nc1=O", "note": "[Compound I-0823]", "pIC50": "6.30 to 7.00"}
{"molecule": "COc1cn(Cc2cc(F)cc(F)c2)c(Nc2ccc3nc(C)sc3c2C)nc1=O", "note": "[Compound I-0860]", "pIC50": "7.00 to 8.00"}
{"molecule": "COc1cn(Cc2ccc(F)c(Cl)c2)c(Nc2c(C)ccc(C)c2F)nc1=O", "note": "[Compound I-0927]", "pIC50": "> 8.00"}
{"molecule": "COc1cn(Cc2ccc(Cl)s2)c(Nc2cc(C)c(C)cc2C)nc1=O", "note": "[Compound I-0808]", "pIC50": "> 8.00"}
{"molecule": "C#Cc1cc(Nc2nc(=O)c(OC)cn2Cc2cc(F)cc(F)c2)c(C)cc1F", "note": "[Compound I-0915]", "pIC50": "7.00 to 8.00"}
{"molecule": "COCc1cn(Cc2cc(F)c(F)c(F)c2)c(Nc2cc(Cl)c(OC)cc2C)nc1=O", "note": "[Compound I-1146]", "pIC50": "7.00 to 8.00"}
{"molecule": "COc1cn(Cc2ccc(F)c(Cl)c2)c(Nc2cc(OC(F)F)c(C)cc2C)nc1=O", "note": "[Compound I-0876]", "pIC50": "> 8.00"}
{"molecule": "COc1cn(Cc2cc(F)cc(Cl)c2)c(Nc2cc(OC3CC3)ccc2C)nc1=O", "note": "[Compound I-0891]", "pIC50": "7.00 to 8.00"}
{"molecule": "Cc1cc(F)c(-c2cccn(C)c2=O)cc1Nc1nc(=O)c(C)cn1Cc1cc(F)c(F)c(F)c1", "note": "[Compound I-1148]", "pIC50": "7.00 to 8.00"}
{"molecule": "Cn1ccc2c(Nc3nc(=O)c(F)cn3Cc3ccc(F)c(F)c3)cccc21", "note": "[Compound I-1020]", "pIC50": "> 8.00"}
{"molecule": "Cc1c(Nc2nc(=O)ccn2Cc2cc(F)c(F)c(F)c2)ccc2[nH]ccc12", "note": "[Compound I-1169]", "pIC50": "> 8.00"}
{"molecule": "COc1cn(Cc2cc(F)c(F)c(F)c2)c(Nc2cc(N3CCCC3=O)ccc2C)nc1=O", "note": "[Compound I-0803]", "pIC50": "7.00 to 8.00"}
{"molecule": "COc1cn(Cc2cc(F)cc(F)c2)c(Nc2cccc3c2ccc(=O)n3C)nc1=O", "note": "[Compound I-0882]", "pIC50": "6.00 to 6.30"}
{"molecule": "COc1cc(Nc2nc(=O)cnn2Cc2cc(F)c(F)c(F)c2)c(C)cc1Cl", "note": "[Compound I-1279]", "pIC50": "> 8.00"}
